Reference: the NIST ThermoML archive (doi:10.1021/je049793l)
± gives the expanded uncertainty stated by the source.

Columns and labels:
[1] = xn = mol fraction of the nth substance listed; conditions: 298.15 K, 101.3 kPa, Liquid
[2] = 298.15 K; 101.3 kPa; Liquid

## Cc1cccc(C)c1 [1,3-dimethylbenzene] + CCC(C)=O
[1]; x1 = 0.0428
  mass density: 803.5 ± 0.9 kg/m3
  speed of sound: 1204 ± 4 m/s
  viscosity: 0.384 ± 0.009 mPa·s
[1]; x1 = 0.1084
  mass density: 809.2 ± 0.9 kg/m3
  speed of sound: 1218 ± 4 m/s
  viscosity: 0.398 ± 0.009 mPa·s
[1]; x1 = 0.2261
  mass density: 818.3 ± 0.9 kg/m3
  speed of sound: 1240 ± 4 m/s
  viscosity: 0.422 ± 0.009 mPa·s
[1]; x1 = 0.3524
  mass density: 827 ± 0.9 kg/m3
  speed of sound: 1256 ± 4 m/s
  viscosity: 0.448 ± 0.01 mPa·s
[1]; x1 = 0.4941
  mass density: 835.7 ± 0.9 kg/m3
  speed of sound: 1273 ± 4 m/s
  viscosity: 0.478 ± 0.01 mPa·s
[1]; x1 = 0.646
  mass density: 844.1 ± 0.9 kg/m3
  speed of sound: 1293 ± 4 m/s
  viscosity: 0.51 ± 0.01 mPa·s
[1]; x1 = 0.8137
  mass density: 852 ± 1 kg/m3
  speed of sound: 1312 ± 4 m/s
  viscosity: 0.546 ± 0.011 mPa·s
[1]; x1 = 0.9235
  mass density: 856.7 ± 1 kg/m3
  speed of sound: 1320 ± 4 m/s
  viscosity: 0.57 ± 0.011 mPa·s
[1]; x1 = 1
  mass density: 859.4 ± 1 kg/m3
  speed of sound: 1323 ± 4 m/s
  viscosity: 0.587 ± 0.011 mPa·s

## Cc1ccccc1C [1,2-dimethylbenzene]
[2]
  mass density: 875.2 ± 1 kg/m3
  speed of sound: 1349 ± 3 m/s
  viscosity: 0.768 ± 0.013 mPa·s

## CCC(C)=O [butanone] + CC(C)c1ccccc1
[1]; x2 = 0
  mass density: 799.6 ± 0.9 kg/m3
  speed of sound: 1195 ± 3 m/s
  viscosity: 0.376 ± 0.009 mPa·s

## CC(C)c1ccccc1 [isopropylbenzene] + CCC(C)=O
[1]; x1 = 0.0377
  mass density: 805 ± 0.9 kg/m3
  speed of sound: 1204 ± 3 m/s
  viscosity: 0.388 ± 0.009 mPa·s
[1]; x1 = 0.0964
  mass density: 812.2 ± 0.9 kg/m3
  speed of sound: 1217 ± 3 m/s
  viscosity: 0.408 ± 0.009 mPa·s
[1]; x1 = 0.2025
  mass density: 821.7 ± 0.9 kg/m3
  speed of sound: 1240 ± 3 m/s
  viscosity: 0.445 ± 0.009 mPa·s
[1]; x1 = 0.3251
  mass density: 829.5 ± 0.9 kg/m3
  speed of sound: 1262 ± 3 m/s
  viscosity: 0.486 ± 0.01 mPa·s
[1]; x1 = 0.4599
  mass density: 835.4 ± 0.9 kg/m3
  speed of sound: 1279 ± 3 m/s
  viscosity: 0.535 ± 0.01 mPa·s
[1]; x1 = 0.615
  mass density: 842 ± 0.9 kg/m3
  speed of sound: 1290 ± 3 m/s
  viscosity: 0.592 ± 0.011 mPa·s
[1]; x1 = 0.7937
  mass density: 849.2 ± 1 kg/m3
  speed of sound: 1298 ± 3 m/s
  viscosity: 0.66 ± 0.012 mPa·s
[1]; x1 = 0.9123
  mass density: 853.9 ± 1 kg/m3
  speed of sound: 1308 ± 3 m/s
  viscosity: 0.705 ± 0.012 mPa·s
[1]; x1 = 1
  mass density: 857.1 ± 1 kg/m3
  speed of sound: 1338 ± 3 m/s
  viscosity: 0.739 ± 0.013 mPa·s

## CCC(C)=O [butanone] + Cc1cccc(C)c1
[1]; x2 = 0
  mass density: 799.6 ± 0.9 kg/m3
  speed of sound: 1195 ± 4 m/s
  viscosity: 0.376 ± 0.009 mPa·s

## Cc1ccc(C)cc1 [1,4-dimethylbenzene] + CCC(C)=O
[1]; x1 = 1
  mass density: 856.1 ± 1 kg/m3
  speed of sound: 1316 ± 3 m/s
  viscosity: 0.609 ± 0.011 mPa·s

## Cc1ccccc1C [1,2-dimethylbenzene] + CCC(C)=O
[1]; x1 = 1
  mass density: 875.2 ± 1 kg/m3
  speed of sound: 1349 ± 3 m/s
  viscosity: 0.768 ± 0.013 mPa·s

## CCC(C)=O [butanone] + Cc1ccc(C)cc1
[1]; x2 = 0
  mass density: 799.6 ± 0.9 kg/m3
  speed of sound: 1195 ± 3 m/s
  viscosity: 0.376 ± 0.009 mPa·s
[1]; x2 = 0.0429
  mass density: 806 ± 0.9 kg/m3
  speed of sound: 1218 ± 3 m/s
  viscosity: 0.392 ± 0.009 mPa·s
[1]; x2 = 0.1074
  mass density: 813.8 ± 0.9 kg/m3
  speed of sound: 1237 ± 3 m/s
  viscosity: 0.414 ± 0.009 mPa·s
[1]; x2 = 0.2235
  mass density: 823.5 ± 0.9 kg/m3
  speed of sound: 1257 ± 3 m/s
  viscosity: 0.444 ± 0.009 mPa·s
[1]; x2 = 0.3501
  mass density: 830.4 ± 0.9 kg/m3
  speed of sound: 1272 ± 3 m/s
  viscosity: 0.471 ± 0.01 mPa·s
[1]; x2 = 0.4895
  mass density: 836.6 ± 0.9 kg/m3
  speed of sound: 1289 ± 3 m/s
  viscosity: 0.5 ± 0.01 mPa·s
[1]; x2 = 0.6419
  mass density: 842.9 ± 0.9 kg/m3
  speed of sound: 1299 ± 3 m/s
  viscosity: 0.533 ± 0.01 mPa·s
[1]; x2 = 0.8117
  mass density: 849.6 ± 1 kg/m3
  speed of sound: 1308 ± 3 m/s
  viscosity: 0.572 ± 0.011 mPa·s
[1]; x2 = 0.9213
  mass density: 853.2 ± 1 kg/m3
  speed of sound: 1313 ± 3 m/s
  viscosity: 0.596 ± 0.011 mPa·s

## CCC(C)=O [butanone] + Cc1ccccc1C
[1]; x2 = 0
  mass density: 799.6 ± 0.9 kg/m3
  speed of sound: 1195 ± 3 m/s
  viscosity: 0.376 ± 0.009 mPa·s
[1]; x2 = 0.0437
  mass density: 805.6 ± 0.9 kg/m3
  speed of sound: 1208 ± 3 m/s
  viscosity: 0.39 ± 0.009 mPa·s
[1]; x2 = 0.1095
  mass density: 813.7 ± 0.9 kg/m3
  speed of sound: 1222 ± 3 m/s
  viscosity: 0.412 ± 0.009 mPa·s
[1]; x2 = 0.2288
  mass density: 825.7 ± 0.9 kg/m3
  speed of sound: 1244 ± 3 m/s
  viscosity: 0.451 ± 0.01 mPa·s
[1]; x2 = 0.3564
  mass density: 836.2 ± 0.9 kg/m3
  speed of sound: 1266 ± 3 m/s
  viscosity: 0.493 ± 0.01 mPa·s
[1]; x2 = 0.4969
  mass density: 846.1 ± 0.9 kg/m3
  speed of sound: 1288 ± 3 m/s
  viscosity: 0.542 ± 0.011 mPa·s
[1]; x2 = 0.65
  mass density: 856 ± 1 kg/m3
  speed of sound: 1310 ± 3 m/s
  viscosity: 0.601 ± 0.011 mPa·s
[1]; x2 = 0.8165
  mass density: 865.9 ± 1 kg/m3
  speed of sound: 1331 ± 3 m/s
  viscosity: 0.673 ± 0.012 mPa·s
[1]; x2 = 0.9244
  mass density: 871.7 ± 1 kg/m3
  speed of sound: 1339 ± 3 m/s
  viscosity: 0.727 ± 0.013 mPa·s

## Cc1cccc(C)c1 [1,3-dimethylbenzene]
[2]
  mass density: 859.4 ± 1 kg/m3
  speed of sound: 1323 ± 4 m/s
  viscosity: 0.587 ± 0.011 mPa·s

## CC(C)c1ccccc1 [isopropylbenzene]
[2]
  mass density: 857.1 ± 1 kg/m3
  speed of sound: 1338 ± 3 m/s
  viscosity: 0.739 ± 0.013 mPa·s

## Cc1ccc(C)cc1 [1,4-dimethylbenzene]
[2]
  mass density: 856.1 ± 1 kg/m3
  speed of sound: 1316 ± 3 m/s
  viscosity: 0.609 ± 0.011 mPa·s

## CCC(C)=O [butanone]
[2]
  mass density: 799.6 ± 0.9 kg/m3
  speed of sound: 1195 ± 3 m/s
  viscosity: 0.376 ± 0.009 mPa·s
